Test results taken from patent EP4273147A1, “SUBSTITUTED SPIROLACTAMS, SALTS THEREOF AND THEIR USE AS HERBICIDALLY ACTIVE SUBSTANCES” (Bayer Aktiengesellschaft, priority 2022, dated 2023).

Columns and labels:
SETVI [1] = test: Herbicidal pre-emergence action, section C (Table C10); format: in vivo, Setaria viridis; settings: application rate 80 g/ha; visual grading after ca. 3 weeks
MATIN [2] = test: Herbicidal pre-emergence action (Table A4); format: in vivo, Matricaria inodora; settings: application rate 1280 g/ha; visual grading after ca. 3 weeks
How it was run: (§1)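 Double sowing per pot (1 monocot + 1 dicot weed species), sandy loam substrate, seeds covered with soil.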

MATIN [3] = test: Herbicidal pre-emergence action, section C (Table C8); format: in vivo, Matricaria inodora; settings: application rate 320 g/ha; visual grading after ca. 3 weeks
GLXMA [4] = test: Pre-emergence effects on crop plants (Table D4); format: in vivo, Glycine max; settings: crop plant; application rate 320 g/ha; visual grading after ca. 3 weeks
BRSNW [5] = test: Pre-emergence effects on crop plants (Table D5); format: in vivo, Brassica napus; settings: crop plant; application rate 320 g/ha; visual grading after ca. 3 weeks
ALOMY [6] = test: Herbicidal post-emergence action, section E (Table E2); format: in vivo, Alopecurus myosuroides; settings: application rate 320 g/ha; assessed visually after ca. 3 weeks
Description: (§2) 2 to 3 weeks after sowing, the test plants were sprayed in the single-leaf stage.

DIGSA = test: Herbicidal pre-emergence action, section C (Table C5); format: in vivo, Digitaria sanguinalis; settings: application rate 80 g/ha; visual grading after ca. 3 weeks
ORYZA [7] = test: Pre-emergence effects on crop plants (Table D3); settings: crop plant; application rate 320 g/ha; visual grading after ca. 3 weeks
VIOTR [8] = test: Herbicidal pre-emergence action, section C (Table C12); format: in vivo, Viola tricolor; settings: application rate 320 g/ha; visual grading after ca. 3 weeks
BRSNW [9] = test: Post-emergence effects on crop plants (Table F5); format: in vivo, Brassica napus; settings: application rate 80 g/ha, crop plant BRSNW
Description: as §2

VERPE [10] = test: Herbicidal pre-emergence action, section C (Table C11); format: in vivo, Veronica persica; settings: application rate 80 g/ha; visual grading after ca. 3 weeks
POAAN = test: Herbicidal pre-emergence action (Table A7); format: in vivo, Poa annua; settings: application rate 320 g/ha; visual grading after ca. 3 weeks
How it was run: as §1

ZEAMX [11] = test: Post-emergence effects on crop plants (Table F1); format: in vivo, Zea mays; settings: application rate 320 g/ha, crop plant ZEAMX
Description: as §2

ECHCG [12] = test: Herbicidal pre-emergence action, section C (Table C6); format: in vivo, Echinochloa crus-galli; settings: application rate 80 g/ha; visual grading after ca. 3 weeks
Description: Seeds of mono- and dicotyledonous weed plants and crop plants were sown, in plastic or organic planting pots, in sandy loam and covered with soil. The compounds according to the invention, formulated in the form of wettable powders (WP) or as emulsifiable concentrates (EC), were applied to the surface of the covering soil as aqueous suspension or emulsion, with the addition of 0.5% of an additive, at an application rate of 600 1 of water/ha (converted). Following treatment, the pots were placed in a greenhouse and kept under optimum growth conditions for the test plants.

TRZAS [13] = test: Pre-emergence effects on crop plants (Table D2); format: in vivo, Triticum aestivum; settings: crop plant; application rate 320 g/ha; visual grading after ca. 3 weeks
Description: Seeds of mono- and dicotyledonous weed plants and crop plants were sown, in plastic or organic planting pots, in sandy loam and covered with soil. The compounds according to the invention, formulated in the form of wettable powders (WP) or as emulsifiable concentrates (EC), were applied to the surface of the covering soil as aqueous suspension or emulsion, with the addition of 0.5% of an additive, at an application rate of 600 1 of water/ha (converted).
Following treatment, the pots were placed in a greenhouse and kept under optimum growth conditions for the test plants.

GLXMA [14] = test: Post-emergence effects on crop plants (Table F4); format: in vivo, Glycine max; settings: application rate 80 g/ha, crop plant GLXMA
Description: as §2

POLCO = test: Herbicidal post-emergence action, section E (Table E7); format: in vivo, Polygonum convolvulus; settings: application rate 320 g/ha; assessed visually after ca. 3 weeks
Description: as §2

TRZAS [15] = test: Post-emergence effects on crop plants (Table F2); format: in vivo, Triticum aestivum; settings: application rate 320 g/ha, crop plant TRZAS
Description: as §2

VIOTR [16] = test: Herbicidal post-emergence action, section E (Table E10); format: in vivo, Viola tricolor; settings: application rate 320 g/ha; assessed visually after ca. 3 weeks
Description: as §2

LOLRI = test: Herbicidal pre-emergence action (Table A3); format: in vivo, Lolium rigidum; settings: application rate 320 g/ha; visual grading after ca. 3 weeks
How it was run: as §1

VERPE [17] = test: Herbicidal post-emergence action, section E (Table E9); format: in vivo, Veronica persica; settings: application rate 320 g/ha; assessed visually after ca. 3 weeks
Description: as §2

ORYZA [18] = test: Post-emergence effects on crop plants (Table F3); format: in vivo, Oryza sativa; settings: application rate 320 g/ha, crop plant ORYZA
Description: as §2

STEME = test: Herbicidal pre-emergence action (Table A6); format: in vivo, Stellaria media; settings: application rate 320 g/ha; visual grading after ca. 3 weeks
How it was run: as §1

ALOMY [19] = test: Herbicidal pre-emergence action, section C (Table C2); format: in vivo, Alopecurus myosuroides; settings: application rate 320 g/ha; visual grading after ca. 3 weeks
ECHCG [20] = test: Herbicidal post-emergence action, section E (Table E5); format: in vivo, Echinochloa crus-galli; settings: application rate 320 g/ha; assessed visually after ca. 3 weeks
Description: as §2

ZEAMX [21] = test: Pre-emergence effects on crop plants (Table D1); format: in vivo, Zea mays; settings: crop plant; application rate 80 g/ha; visual grading after ca. 3 weeks
SETVI [22] = test: Herbicidal pre-emergence action (Table A5); format: in vivo, Setaria viridis; settings: application rate 320 g/ha; visual grading after ca. 3 weeks
How it was run: as §1

ECHCG [23] = test: Herbicidal pre-emergence action (Table A2); format: in vivo, Echinochloa crus-galli; settings: application rate 320 g/ha; visual grading after ca. 3 weeks
How it was run: as §1

O=C1N(Cc2cc(F)ccc2F)CCCC12CCCN(Cc1cc(F)ccc1F)C2=O (racemic) [I-017]
pre-emergence activity against SETVI (SETVI [1]): 90%
pre-emergence activity against MATIN (MATIN [2]): 90%
pre-emergence activity against MATIN (MATIN [3]): 80%
pre-emergence activity against GLXMA (GLXMA [4]): 20%
pre-emergence activity against BRSNW (BRSNW [5]): 20%
post-emergence activity against ALOMY (ALOMY [6]): 80%
pre-emergence activity against DIGSA (DIGSA): 100%
pre-emergence activity against ORYZA (ORYZA [7]): 20%
pre-emergence activity against VIOTR (VIOTR [8]): 80%
post-emergence activity against BRSNW (BRSNW [9]): 0%
pre-emergence activity against VERPE (VERPE [10]): 90%
pre-emergence activity against POAAN (POAAN): 100%
post-emergence activity against ZEAMX (ZEAMX [11]): 10%
pre-emergence activity against ECHCG (ECHCG [12]): 100%
pre-emergence activity against TRZAS (TRZAS [13]): 10%
post-emergence activity against GLXMA (GLXMA [14]): 20%
post-emergence activity against POLCO (POLCO): 100%
post-emergence activity against TRZAS (TRZAS [15]): 10%
post-emergence activity against VIOTR (VIOTR [16]): 80%
pre-emergence activity against LOLRI (LOLRI): 100%
post-emergence activity against VERPE (VERPE [17]): 80%
post-emergence activity against ORYZA (ORYZA [18]): 0%
pre-emergence activity against STEME (STEME): 90%
pre-emergence activity against ALOMY (ALOMY [19]): 90%
post-emergence activity against ECHCG (ECHCG [20]): 80%
pre-emergence activity against ZEAMX (ZEAMX [21]): 10%
pre-emergence activity against SETVI (SETVI [22]): 100%
pre-emergence activity against ECHCG (ECHCG [23]): 100%
